Source: PMC9869995, “Discovery of benzochromene derivatives first example with dual cytotoxic activity against the resistant cancer cell MCF-7/ADR and inhibitory effect of the P-glycoprotein expression levels” (Journal of Enzyme Inhibition and Medicinal Chemistry, 2023)

How the values were obtained:
[1] = system: HepG-2; test: MTT cell viability assay, HepG-2; assay type: cell-based; conditions: Homo sapiens, HepG2, 24 h incubation, mean ± standard error
Source text: (§1) According to previous reports regarding the cytotoxic features of a numerous array of benzochromene scaffolds, compounds 4a − z have been elected to explore their cytotoxic ability against three tumour cell lines, including HCT-116 (colon cancer), MCF-7 (breast cancer), and HepG-2 (hepatocellular cancer), and employing the 3–(4,5-dimethylthiazol-2-yl)-2,5-diphenyl tetrazolium bromide (MTT) colorimetric assay as described in literature. Judges choice of such cell lines has been stimulated by the acknowledged antitumor performance of a substantial number of 1H-benzo[f]chromene and 4H-benzo[h]chromene molecules towards the asserted cell lines. […] Moreover, benzochromene derivatives with highly cytotoxic behaviour, 4a − d, 4g, 4i, 4k, 4n, 4q, 4 u, and 4w, are subjected to further inspection against ADR-resistant human breast cancer cells (MCF-7/ADR) and the two normal cell lines, HFL-1 and human diploid fibroblasts (WI-38). […] Also, the results are illustrated in Table 4.
(§2) The tumour cell lines MCF-7, HepG-2, and […] were obtained from the American Type Culture Collection (ATCC, Rockville, MD). The cells were grown on RPMI-1640 medium supplemented with 10% inactivated foetal calf serum and 50 µg/mL gentamycin. The cells were maintained at 37 °C in a humidified atmosphere with 5% CO2 and were subculture two to three times a week.
(§3) The cytotoxic activity was appraised, using the 3–(4,5-dimethylthiazol-2-yl)-2,5-diphenyl-tetrazolium bromide (MTT) colorimetric assay, as reported previously[57] and ELISA assay for MCF-7/ADR[75].

[2] = system: HCT-116; test: MTT cell viability assay, HCT-116; assay type: cell-based; conditions: Homo sapiens, 24 h incubation, mean ± standard error
Source text: as §1, §3

[3] = system: MCF-7/ADR; test: Cytotoxicity against ADR-resistant breast cancer cells; assay type: cell-based, human; conditions: 24 h exposure, mean ± standard error
Source text: as §1, §3

[4] = system: P-gp; test: P-gp content in MCF-7/ADR cell lysate by ELISA; assay type: cell-based, human; conditions: MCF-7/ADR lysate; for %Reduction of P-gp expression / IC50: 48 h; for IC50 at 48 h: human, MCF-7/ADR cells (cell lysate)
Experimental: P-gp pumps multiple types of drugs out of the cell, using energy generated from adenosine triphosphate (ATP), and confers MDR on cancer cells. It is one of the noteworthy problems in malignant tumour clinical therapeutics. […].
The content of P-gp in the MCF-7/ADR cell lysates after incubation with varying conc. (12.5–100 µM) of tested compounds 4b, 4c, 4d, 4q, and 4w following exposure for 48 h. was determined using commercial human P-gp ELISA Kit (MBS2506188, MyBioSource Inc., San Diego, CA). Absorption was recorded at 450 nm with a Spectramax Gemini fluorescence microplate reader (Molecular Devices, Sunnyvale, CA).

[5] = system: HFL-1; test: Cytotoxicity against normal cell line HFL-1; assay type: cell-based; conditions: Homo sapiens, HFL1, 24 h, mean ± standard error
Source text: as §1, §3

[6] = system: WI-38; test: Cytotoxicity against normal cell line WI-38; assay type: cell-based; conditions: Homo sapiens, 24 h, mean ± standard error
Source text: as §1, §3

[7] = system: MCF-7; test: MTT cell viability assay, MCF-7; assay type: cell-based; conditions: Homo sapiens, MCF7, 24 h incubation, mean ± standard error
Source text: as §1, §2, §3

[8] = target: T1, P-gp (Homo sapiens, UniProt P08183); test: Rhodamine 123 accumulation assay in MCF-7/ADR cells; assay type: cell-based; conditions: 4 h compound, then 5.25 μM Rho123 30 min
T1 construct: endogenous in cells; host or cells: MCF-7/ADR (Adriamycin-resistant human breast cancer cells)
Experimental: Furthermore, the reversion of P-gp mediated multidrug resistance may be achieved by down-regulation of P-gp expression and or inhibition of P-gp efflux function.
Briefly, resistant cancer cells were harvested, washed twice, and counted. […] of each well was measured using Spectramax Gemini fluorescence microplate reader (Molecular Devices, Sunnyvale, CA). The total content of Rhodamine in each sample was determined by comparison with a Rhodamine standard curve.

[9] = system: MCF-7/ADR cells; test: Annexin V-FITC/PI apoptosis assay; assay type: cell-based, human; conditions: IC50 value, 24 h, untreated cells 2%
Source text: Several lines of evidence indicate that many anticancer compounds exerted their effects by blocking the cell cycle progression, by inducing apoptosis, or the combined effect of both[67]. Also, P-gp inhibits apoptosis by preventing the release of cytochrome c which is mediated by the intrinsic mitochondrial pathway. To further assess the pivotal relation of the newly synthesised MCF-7/ADR anticancer compounds and apoptosis, phosphatidylserine (PS) translocation to the cell membrane as a marker for apoptosis was measured by the means of the Annexin V/PI double staining flow cytometric assay.
Apoptosis assay was performed with an Annexin V-FITC/PI double staining apoptosis detection kit (K101, Biovison, Milpitas, CA) using a flow cytometer. MCF-7/ADR cancer cells treated with different newly synthesised compounds (IC50 value) were harvested by trypsinization, washed twice with 4 °C PBS, and re-suspended in binding buffer. Annexin V-FITC and PI solutions were then added to stain the cells before analysis by flow cytometry A minimum of 10,000 cells per sample were acquired. Annexin V-FITC binding (FL1) and PI (FL2) were analysed using Cell Quest Pro software (BD Biosciences).

[10] = Homo sapiens, NCI/ADR-RES, 24 h

T1 sequence (P08183 whole entry): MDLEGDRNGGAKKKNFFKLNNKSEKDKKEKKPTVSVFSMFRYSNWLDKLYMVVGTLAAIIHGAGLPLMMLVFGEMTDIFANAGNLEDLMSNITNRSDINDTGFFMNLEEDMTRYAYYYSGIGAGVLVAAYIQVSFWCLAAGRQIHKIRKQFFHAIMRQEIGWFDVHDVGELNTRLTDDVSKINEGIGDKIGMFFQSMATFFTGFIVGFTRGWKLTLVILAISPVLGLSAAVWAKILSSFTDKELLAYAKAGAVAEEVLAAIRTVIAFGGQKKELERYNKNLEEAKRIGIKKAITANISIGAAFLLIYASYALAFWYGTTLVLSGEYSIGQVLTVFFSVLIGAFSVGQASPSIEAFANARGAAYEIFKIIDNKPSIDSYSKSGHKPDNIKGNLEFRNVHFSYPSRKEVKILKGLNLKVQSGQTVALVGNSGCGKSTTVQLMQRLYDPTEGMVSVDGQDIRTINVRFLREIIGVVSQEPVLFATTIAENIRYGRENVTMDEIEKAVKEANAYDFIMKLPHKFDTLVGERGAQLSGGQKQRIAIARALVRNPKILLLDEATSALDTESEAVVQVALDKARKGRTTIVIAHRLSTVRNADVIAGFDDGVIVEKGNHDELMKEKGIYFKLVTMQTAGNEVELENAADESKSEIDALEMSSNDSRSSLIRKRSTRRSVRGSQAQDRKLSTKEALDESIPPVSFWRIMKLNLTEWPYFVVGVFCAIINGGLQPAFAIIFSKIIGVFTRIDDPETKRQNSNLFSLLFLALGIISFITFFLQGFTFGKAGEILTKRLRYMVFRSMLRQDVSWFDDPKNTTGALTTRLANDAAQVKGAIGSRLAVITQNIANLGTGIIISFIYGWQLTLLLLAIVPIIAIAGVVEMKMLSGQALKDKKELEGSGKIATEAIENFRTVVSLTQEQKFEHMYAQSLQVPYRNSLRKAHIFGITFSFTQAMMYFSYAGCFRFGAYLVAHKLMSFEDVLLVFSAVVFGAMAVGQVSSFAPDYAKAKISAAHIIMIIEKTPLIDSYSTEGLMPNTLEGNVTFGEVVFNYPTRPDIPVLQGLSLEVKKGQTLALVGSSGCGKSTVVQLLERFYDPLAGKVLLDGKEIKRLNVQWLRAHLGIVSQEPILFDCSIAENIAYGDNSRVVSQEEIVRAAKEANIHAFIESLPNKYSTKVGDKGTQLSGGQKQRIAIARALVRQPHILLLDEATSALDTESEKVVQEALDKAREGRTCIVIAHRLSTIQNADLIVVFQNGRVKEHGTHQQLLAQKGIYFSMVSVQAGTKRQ

IC50 [2] | melting point | IC50 [4] | IC50 at 48 h [4] | IC50 [7] | IC50 [8] | SMILES | IC50 [1] | IC50 [3] | IC50 [3, 10] | %Reduction of P-gp expression ([4]; Conc. 12.5 µM) | %Reduction of P-gp expression ([4]; Conc. 25 µM) | %Reduction of P-gp expression ([4]; Conc. 50 µM) | %Reduction of P-gp expression ([4]; Conc. 100 µM) | IC50 [5] | IC50 [6] | total apoptosis [9]
1.3 ± 0.1 µM | 255 to 256 °C |  | 45.3 µM | 2.3 ± 0.1 µM | 39.1 µM | COc1ccc2ccc3c(c2c1)C(c1ccc(Cl)c(Cl)c1)C(C#N)=C(N)O3 (centres unmarked) [4q, 3-Amino-1–(3,4-dichlorophenyl)-9-methoxy-1H-benzo[f]chromene-2-carbonitrile] | 1.5 ± 0.1 µM | 13.4 ± 0.4 µM | 10.9 to 15.5 µM | 19% | 32% | 51% | 76% | 75.8 ± 0.2 µM | 72.8 ± 0.4 µM | 
6.2 ± 0.3 µM | 253 to 255 °C | 32.4 µM | 18.7 to 34.6 µM | 2.6 ± 0.5 µM | 25.6 µM | COc1ccc2ccc3c(c2c1)C(c1ccc(OC)c(OC)c1)C(C#N)=C(N)O3 (centres unmarked) [4w, 3-Amino-1–(3,4-dimethoxyphenyl)-9-methoxy-1H-benzo[f]chromene-2-carbonitrile] | 52.3 ± 0.4 µM | 11.5 ± 0.6 µM | 10.9 to 15.5 µM | 24% | 36% | 68% | 79% | 47.1 ± 0.2 µM | 52.9 ± 0.3 µM | 
0.9 ± 0.02 µM |  |  | 50.9 µM | 0.8 ± 0.01 µM |  | COc1cccc2c1C(=O)c1c(O)c3c(c(O)c1C2=O)C[C@@](O)(C(=O)CO)C[C@@H]3O[C@H]1C[C@H](N)[C@H](O)[C@H](C)O1 [Doxorubicin, reference compound] | 1.7 ± 0.4 µM |  |  |  |  |  |  |  |  | 30%

The next lines start with the compound.

SMILES | IC50 [2] | melting point | IC50 [4] | IC50 at 48 h [4] | IC50 [7] | IC50 [8] | IC50 [1] | IC50 [3] | IC50 [3, 10] | %Reduction of P-gp expression ([4]; Conc. 12.5 µM) | %Reduction of P-gp expression ([4]; Conc. 25 µM) | %Reduction of P-gp expression ([4]; Conc. 50 µM) | %Reduction of P-gp expression ([4]; Conc. 100 µM) | IC50 [5] | IC50 [6] | total apoptosis [9]
COc1ccc2ccc3c(c2c1)C(c1ccccc1Cl)C(C#N)=C(N)O3 (centres unmarked) [4b, 3-Amino-1–(2-chlorophenyl)-9-methoxy-1H-benzo[f]chromene-2-carbonitrile] | 2.5 ± 0.2 µM | 266 to 267 °C | 26.7 µM | 18.7 to 34.6 µM | 11.3 ± 0.1 µM | 20.5 µM | 10.7 ± 0.5 µM | 13.3 ± 0.5 µM | 10.9 to 15.5 µM | 30% | 42% | 72% | 90% | 71.9 ± 0.1 µM | 66.7 ± 0.2 µM | 
COc1ccc2ccc3c(c2c1)C(c1cccc(Cl)c1)C(C#N)=C(N)O3 (centres unmarked) [4c, 3-Amino-1–(3-chlorophenyl)-9-methoxy-1H-benzo[f]chromene-2-carbonitrile] | 9.9 ± 0.1 µM | 262 to 263 °C | 28.4 µM | 18.7 to 34.6 µM | 8.5 ± 0.6 µM | 23 µM | 11 ± 0.2 µM | 10.9 ± 0.2 µM | 10.9 to 15.5 µM | 26% | 40% | 70% | 84% | 59.5 ± 1.1 µM | 61.5 ± 1.2 µM | 
COc1ccc2ccc3c(c2c1)C(c1ccc(Cl)cc1)C(C#N)=C(N)O3 (centres unmarked) [4d, 3-Amino-1–(4-chlorophenyl)-9-methoxy-1H-benzo[f]chromene-2-carbonitrile] | 1.9 ± 0.4 µM | 257 to 258 °C |  | 13.5 µM | 0.6 ± 0.2 µM | 10.6 µM | 7.2 ± 0.1 µM | 12.5 ± 0.3 µM | 10.9 to 15.5 µM | 45% | 60% | 81% | 91% | 77.1 ± 1.1 µM | 83 ± 1.1 µM | 
COc1ccc2ccc3c(c2c1)C(c1ccc(F)cc1F)C(C#N)=C(N)O3 (centres unmarked) [4k, 3-Amino-1–(2,4-difluorophenyl)-9-methoxy-1H-benzo[f]chromene-2-carbonitrile] | 4.1 ± 0.2 µM | 255 to 256 °C |  | 61.4 µM | 3 ± 0.3 µM | 57.8 µM | 8.2 ± 0.6 µM | 11.5 ± 0.6 µM | 10.9 to 15.5 µM | 12% | 28% | 45% | 70% | 59.6 ± 0.1 µM | 47.3 ± 0.2 µM | 
